Columns and labels:
[1] = test system: Septoria tritici (SEPTTR); assay: Septoria tritici test (wheat), field trial FRA-AJ28; assay type: in vivo; settings: sprayed twice, 47 DAB, BBCH 77, 75 g/ha (I), 75 g/ha (II), 150 g/ha (III), 75 + 75 + 150 g/ha combination; for Rating Scale: % Rating Type: Mean (Plant Part Rated: LEAF): disease rating, untreated control 95.0
[2] = test system: Leptosphaeria nodorum (LEPTNO); assay: Leptosphaeria nodorum test (wheat), field trial DEU-S826; assay type: in vivo; settings: sprayed twice, 18 DAB, BBCH 69, 75 g/ha (I), 75 g/ha (II), 150 g/ha (III), 75 + 75 + 150 g/ha combination; for Rating Scale: % Rating Type: Mean (Plant Part Rated: LEALOW): disease rating, untreated control 23.1
[3] = test system: Pyrenophora tritici-repentis (PYRNTR); assay: Pyrenophora tritici-repentis test (wheat), field trial DEU-NWU3; assay type: in vivo; settings: sprayed twice, 43 DAB, BBCH 83, 75 g/ha (I), 75 g/ha (II), 150 g/ha (III), 75 + 75 + 150 g/ha combination; for Rating Scale: % Rating Type: Mean (Plant Part Rated: FL-0-1): disease rating, untreated control 2.8
[4] = test system: Drechslera tritici-repentis (DTR, also named Pyrenophora tritici-repentis); assay: Curative potential against Drechslera tritici-repentis (tan spot) in winter wheat; assay type: in vivo; settings: infected leaf area 21 days after inoculation; for Efficacy [% Abbott] 1 dai: application 1 day after inoculation; for Efficacy [% Abbott] 4 dai: application 4 days after inoculation
[5] = test system: Alternaria alternata SDH-mutants; settings: in vitro; Avenot et al., Crop Protection 29 (2010) 643-651; cited from earlier work
[6] = test system: Septoria tritici (Mycosphaerella graminicola); assay: Protective and curative potential against Septoria tritici in winter wheat, visual assessment of infested leaf area; assay type: in vivo; settings: assessed 21 days after inoculation, dose rates Table 5: BIX 0.6, BIX+FLU 0.75, BIX+PTZ 1, BIX+FLU+PTZ 1 l/ha
[7] = test system: Septoria tritici (Mycosphaerella graminicola); assay: Protective and curative potential against Septoria tritici in winter wheat, quantification of Septoria-DNA (SeptoCast); assay type: in vivo; settings: 21 days after inoculation, dose rates Table 5
[8] = solo compound at 97.5 g a.i./ha
[9] = curative, application 1 day after inoculation
[10] = curative, application 4 days after inoculation
[11] = curative, application 8 days after inoculation
[12] = curative, application 11 days after inoculation
[13] = preventive, application 1 day before inoculation
[14] = preventive, application 4 days before inoculation
[15] = preventive, application 8 days before inoculation
[16] = preventive, application 11 days before inoculation

Structure (SMILES) | Rating Scale: % Rating Type: Mean (Plant Part Rated: LEAF) [1] [%] | % ABBOTT [1] [%] | Efficacy [%] % found [1] [%] | Rating Scale: % Rating Type: Mean (Plant Part Rated: LEALOW) [2] [%] | % ABBOTT [2] [%] | Efficacy [%] % found [2] [%] | Rating Scale: % Rating Type: Mean (Plant Part Rated: FL-0-1) [3] [%] | % ABBOTT [3] [%] | Efficacy [%] % found [3] [%] | Efficacy [% Abbott] 1 dai [4, 8] [% Abbott] | Efficacy [% Abbott] 4 dai [4, 8] [% Abbott] | effect on mycelial growth of boscalid-resistant isolates carrying SDH-mutations [5] | Efficacy [% Abbott] 1 dai ([4]; solo compound at 125 g a.i./ha) [% Abbott] | Efficacy [% Abbott] 4 dai ([4]; solo compound at 125 g a.i./ha) [% Abbott] | also measured
O=C(NCCc1ncc(C(F)(F)F)cc1Cl)c1ccccc1C(F)(F)F [Fluopyram, N-{2-[3-chloro-5-(trifluoromethyl)-2-pyridyl]ethyl}-α,α,α-trifluoro-ortho-toluamide] | 52.5 | 44.7 | 44.7 | 10.9 | 53.0 | 53.0 | 2.3 | 18.2 | 18.2 | 97 | 49 | strongly inhibited the mycelial growth | – | – | –
Cn1cc(C(=O)Nc2ccccc2-c2cc(F)c(F)c(F)c2)c(C(F)F)n1 [Fluxapyroxad, fluxapyroxad] | – | – | – | – | – | – | – | – | – | 93 | 24 | – | 94 | 32 | –
CC(C)CC(C)c1sccc1NC(=O)c1cn(C)nc1C(F)(F)F (stereo not shown) [penthiopyrad] | – | – | – | – | – | – | – | – | – | – | – | not affected | – | – | –
Cn1cc(C(=O)Nc2ccc(F)cc2-c2ccc(Cl)c(Cl)c2)c(C(F)F)n1 [Bixafen, bixafen] | 36.3 | 61.8 | 61.8 | 14.7 | 36.5 | 36.5 | 2.3 | 18.2 | 18.2 | 91 | 38 | – | 91 | 32 | Visual assessment [%] ABBOTT, 1 dai [6, 9]: 100%; Visual assessment [%] ABBOTT, 4 dai [6, 10]: 100%; Visual assessment [%] ABBOTT, 8 dai [6, 11]: 81.1%; Visual assessment [%] ABBOTT, 11 dai [6, 12]: 80.2%; Visual assessment [%] ABBOTT, 1 dbi [6, 13]: 100%; Visual assessment [%] ABBOTT, 4 dbi [6, 14]: 100%; Visual assessment [%] ABBOTT, 8 dbi [6, 15]: 96.7%; Visual assessment [%] ABBOTT, 11 dbi [6, 16]: 88.7%; DNA Quantification [Septoria DNA], relative copynumbers, 1 dai [7, 9]: 135 n; DNA Quantification [Septoria DNA], relative copynumbers, 4 dai [7, 10]: 416 n; DNA Quantification [Septoria DNA], relative copynumbers, 8 dai [7, 11]: 10421 n; DNA Quantification [Septoria DNA], relative copynumbers, 11 dai [7, 12]: 19806 n; DNA Quantification [Septoria DNA], relative copy numbers, 1 dbi [7, 13]: 120 n; DNA Quantification [Septoria DNA], relative copy numbers, 4 dbi [7, 14]: 141 n; DNA Quantification [Septoria DNA], relative copy numbers, 8 dbi [7, 15]: 428 n; DNA Quantification [Septoria DNA], relative copy numbers, 11 dbi [7, 16]: 2853 n
OC(Cc1ccccc1Cl)(Cn1nc[nH]c1=S)C1(Cl)CC1 (stereo not shown) [(III) Prothioconazole, prothioconazole] | 30.0 | 68.4 | 68.4 | 6.4 | 72.4 | 72.4 | 1.8 | 36.4 | 36.4 | – | – | – | – | – | –
